# Experimental data published in the supplement of paper PMC10307832.
# Tests used:
# Experiment in all cases: relative viability (nuclei count vs DMSO), 5 days (fraction); higher = more cells survive
# [1] = compound: COc1cc(Nc2c(C#N)cnc3cc(OCCCN4CCN(C)CC4)c(OC)cc23)c(Cl)cc1Cl [Bosutinib] + C[C@@H](Oc1cc(-c2cnn(C3CCNCC3)c2)cnc1N)c1c(Cl)ccc(F)c1Cl [Crizotinib] (partner 1 µM)
# Procedure, shortened: (§1)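 Lung cancer cell lines, seeded in 1536-well plates, were treated the following day by pin tool with a single drug or with five library-drug doses (not always all listed) in √10 steps on top of a fixed anchor-drug dose. Cells were fixed and nuclei stained in one step after 5 days, and nuclei were counted. Relative viability is the nuclei count for treated wells divided by that for vehicle wells, reported as medians of duplicate plates.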
# [2] = compound: COc1cc(Nc2c(C#N)cnc3cc(OCCCN4CCN(C)CC4)c(OC)cc23)c(Cl)cc1Cl [Bosutinib] + CS(=O)(=O)N1CCN(Cc2cc3nc(-c4cccc5[nH]ncc45)nc(N4CCOCC4)c3s2)CC1 [Pictilisib] (partner 1 µM)
# Procedure, shortened: as §1
# [3] = compound: COc1cc(Nc2c(C#N)cnc3cc(OCCCN4CCN(C)CC4)c(OC)cc23)c(Cl)cc1Cl [Bosutinib] + Cc1nc(NC(=O)N2CCC[C@H]2C(N)=O)sc1-c1ccnc(C(C)(C)C(F)(F)F)c1 [Alpelisib] (partner 2 µM)
# Procedure, shortened: as §1
# [4] = compound: COc1cc(Nc2c(C#N)cnc3cc(OCCCN4CCN(C)CC4)c(OC)cc23)c(Cl)cc1Cl [Bosutinib] + O=C(c1cc(Cc2n[nH]c(=O)c3ccccc23)ccc1F)N1CCN(C(=O)C2CC2)CC1 [Olaparib] (partner 8 µM)
# Procedure, shortened: as §1
# [5] = compound: COc1cc(Nc2c(C#N)cnc3cc(OCCCN4CCN(C)CC4)c(OC)cc23)c(Cl)cc1Cl [Bosutinib] + C[C@]1(O)C[C@@H](c2nc(-c3ccc4ccc(-c5ccccc5)nc4c3)c3c(N)nccn32)C1 [Linsitinib] (partner 1 µM)
# Procedure, shortened: as §1
# [6] = compound: COc1cc(Nc2c(C#N)cnc3cc(OCCCN4CCN(C)CC4)c(OC)cc23)c(Cl)cc1Cl [Bosutinib] + CS(=O)(=O)CCNCc1ccc(-c2ccc3ncnc(Nc4ccc(OCc5cccc(F)c5)c(Cl)c4)c3c2)o1 [Lapatinib] (partner 2 µM)
# Procedure, shortened: as §1
# [7] = compound: COc1cc(Nc2c(C#N)cnc3cc(OCCCN4CCN(C)CC4)c(OC)cc23)c(Cl)cc1Cl [Bosutinib] + CC(C)C[C@H](NC(=O)[C@H](Cc1ccccc1)NC(=O)c1cnccn1)B(O)O [Bortezomib] (partner 0.002 µM)
# Procedure, shortened: as §1
# [8] = compound: COc1cc(Nc2c(C#N)cnc3cc(OCCCN4CCN(C)CC4)c(OC)cc23)c(Cl)cc1Cl [Bosutinib] + COc1cc2c(Oc3ccc(NC(=O)C4(C(=O)Nc5ccc(F)cc5)CC4)cc3F)ccnc2cc1OCCCN1CCOCC1 [Foretinib] (partner 0.25 µM)
# Procedure, shortened: as §1
# [9] = compound: COc1cc(Nc2c(C#N)cnc3cc(OCCCN4CCN(C)CC4)c(OC)cc23)c(Cl)cc1Cl [Bosutinib] + CC1(C)CCC(c2ccc(Cl)cc2)=C(CN2CCN(c3ccc(C(=O)NS(=O)(=O)c4ccc(N[C@H](CCN5CCOCC5)CSc5ccccc5)c(S(=O)(=O)C(F)(F)F)c4)cc3)CC2)C1 [Navitoclax] (partner 0.5 µM)
# Procedure, shortened: as §1
# [10] = compound: COc1cc(Nc2c(C#N)cnc3cc(OCCCN4CCN(C)CC4)c(OC)cc23)c(Cl)cc1Cl [Bosutinib]
# Procedure, shortened: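 Acceptance criteria were a control CV below 25% and at least one doubling per plate. Lung cancer cell lines in 1536-well plates got five library-drug doses (not always all listed) √10 apart by pinning and were left 5 days with no medium change. Viability divides treated-well nuclei by vehicle-well nuclei and is the median across plates. Nuclei were counted by MetaXpress from 4× Hoechst images.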
# [11] = compound: COc1cc(Nc2c(C#N)cnc3cc(OCCCN4CCN(C)CC4)c(OC)cc23)c(Cl)cc1Cl [Bosutinib] + CCNC(=O)c1noc(-c2cc(C(C)C)c(O)cc2O)c1-c1ccc(CN2CCOCC2)cc1 [Luminespib] (partner 0.01 µM)
# Procedure, shortened: as §1
# [12] = compound: COc1cc(Nc2c(C#N)cnc3cc(OCCCN4CCN(C)CC4)c(OC)cc23)c(Cl)cc1Cl [Bosutinib] + N=C(N)NC(=N)NCCc1ccccc1 [Phenformin] (partner 250 µM)
# Procedure, shortened: as §1
# [13] = compound: COc1cc(Nc2c(C#N)cnc3cc(OCCCN4CCN(C)CC4)c(OC)cc23)c(Cl)cc1Cl [Bosutinib] + Nc1nc2[nH]cc(CCc3ccc(C(=O)N[C@@H](CCC(=O)O)C(=O)O)cc3)c2c(=O)[nH]1 [Pemetrexed] (partner 0.2 µM)
# Procedure, shortened: as §1
# [14] = compound: COc1cc(Nc2c(C#N)cnc3cc(OCCCN4CCN(C)CC4)c(OC)cc23)c(Cl)cc1Cl [Bosutinib] + COc1cccc2cc(-c3nc([C@H]4CC[C@H](C(=O)O)CC4)n4ncnc(N)c34)[nH]c12 [OSI-027] (partner 0.5 µM)
# Procedure, shortened: as §1
# [15] = compound: COc1cc(Nc2c(C#N)cnc3cc(OCCCN4CCN(C)CC4)c(OC)cc23)c(Cl)cc1Cl [Bosutinib] + Cc1nc(Nc2ncc(C(=O)Nc3c(C)cccc3Cl)s2)cc(N2CCN(CCO)CC2)n1 [Dasatinib] (partner 0.075 µM)
# Procedure, shortened: as §1
cell line,measurement,setting,value
NCI-H1299,relative viability,[1]; first compound 0.01 µM,0.947
same,relative viability,[1]; first compound 0.03162 µM,1
same,relative viability,[1]; first compound 0.1 µM,0.965
same,relative viability,[1]; first compound 1 µM,0.942
same,relative viability,[2]; first compound 0.01 µM,0.777
same,relative viability,[2]; first compound 0.03162 µM,0.989
same,relative viability,[2]; first compound 0.1 µM,0.858
same,relative viability,[2]; first compound 1 µM,0.515
same,relative viability,[3]; first compound 0.01 µM,1.05
same,relative viability,[3]; first compound 0.03162 µM,1.03
same,relative viability,[3]; first compound 0.1 µM,1.05
same,relative viability,[3]; first compound 1 µM,1.2
same,relative viability,[4]; first compound 0.01 µM,1
same,relative viability,[4]; first compound 0.03162 µM,0.982
same,relative viability,[4]; first compound 0.1 µM,0.994
same,relative viability,[4]; first compound 1 µM,0.96
same,relative viability,[5]; first compound 0.01 µM,1.05
same,relative viability,[5]; first compound 0.03162 µM,0.983
same,relative viability,[5]; first compound 0.1 µM,1.07
same,relative viability,[5]; first compound 1 µM,0.92
same,relative viability,[6]; first compound 0.01 µM,0.969
same,relative viability,[6]; first compound 0.03162 µM,0.99
same,relative viability,[6]; first compound 0.1 µM,0.903
same,relative viability,[6]; first compound 1 µM,0.916
same,relative viability,[7]; first compound 0.01 µM,1
same,relative viability,[7]; first compound 0.03162 µM,1.06
same,relative viability,[7]; first compound 0.1 µM,1.01
same,relative viability,[7]; first compound 1 µM,1
same,relative viability,[8]; first compound 0.01 µM,1.16
same,relative viability,[8]; first compound 0.03162 µM,1.14
same,relative viability,[8]; first compound 0.1 µM,1.13
same,relative viability,[8]; first compound 1 µM,0.989
same,relative viability,[9]; first compound 0.01 µM,1.05
same,relative viability,[9]; first compound 0.03162 µM,1.06
same,relative viability,[9]; first compound 0.1 µM,0.995
same,relative viability,[9]; first compound 1 µM,1.03
same,relative viability,[10]; 0.01 µM,1.01
same,relative viability,[10]; 0.03162 µM,1.01
same,relative viability,[10]; 0.1 µM,1.03
same,relative viability,[10]; 1 µM,1.02
NCI-H1563,relative viability,[1]; first compound 0.01 µM,0.896
same,relative viability,[1]; first compound 0.03162 µM,0.753
same,relative viability,[1]; first compound 0.1 µM,0.753
same,relative viability,[1]; first compound 1 µM,0.658
same,relative viability,[2]; first compound 0.01 µM,0.611
same,relative viability,[2]; first compound 0.03162 µM,0.607
same,relative viability,[2]; first compound 0.1 µM,0.613
same,relative viability,[2]; first compound 1 µM,0.526
same,relative viability,[3]; first compound 0.01 µM,0.905
same,relative viability,[3]; first compound 0.03162 µM,0.904
same,relative viability,[3]; first compound 0.1 µM,0.859
same,relative viability,[3]; first compound 1 µM,0.63
same,relative viability,[11]; first compound 0.01 µM,0.516
same,relative viability,[11]; first compound 0.03162 µM,0.535
same,relative viability,[11]; first compound 0.1 µM,0.54
same,relative viability,[11]; first compound 1 µM,0.521
same,relative viability,[5]; first compound 0.01 µM,1.24
same,relative viability,[5]; first compound 0.03162 µM,1.2
same,relative viability,[5]; first compound 0.1 µM,1.06
same,relative viability,[5]; first compound 1 µM,0.792
same,relative viability,[6]; first compound 0.01 µM,0.869
same,relative viability,[6]; first compound 0.03162 µM,0.931
same,relative viability,[6]; first compound 0.1 µM,0.84
same,relative viability,[6]; first compound 1 µM,0.758
same,relative viability,[12]; first compound 0.01 µM,0.65
same,relative viability,[12]; first compound 0.03162 µM,0.635
same,relative viability,[12]; first compound 0.1 µM,0.617
same,relative viability,[12]; first compound 1 µM,0.573
same,relative viability,[13]; first compound 0.01 µM,0.655
same,relative viability,[13]; first compound 0.03162 µM,0.771
same,relative viability,[13]; first compound 0.1 µM,0.772
same,relative viability,[13]; first compound 1 µM,0.638
same,relative viability,[7]; first compound 0.01 µM,0.885
same,relative viability,[7]; first compound 0.03162 µM,0.775
same,relative viability,[7]; first compound 0.1 µM,0.784
same,relative viability,[7]; first compound 1 µM,0.659
same,relative viability,[14]; first compound 0.01 µM,0.794
same,relative viability,[14]; first compound 0.03162 µM,0.831
same,relative viability,[14]; first compound 0.1 µM,0.761
same,relative viability,[14]; first compound 1 µM,0.717
same,relative viability,[8]; first compound 0.01 µM,0.917
same,relative viability,[8]; first compound 0.03162 µM,0.953
same,relative viability,[8]; first compound 0.1 µM,0.846
same,relative viability,[8]; first compound 1 µM,0.676
same,relative viability,[15]; first compound 0.01 µM,0.444
same,relative viability,[15]; first compound 0.03162 µM,0.47
same,relative viability,[15]; first compound 0.1 µM,0.446
same,relative viability,[15]; first compound 1 µM,0.472
same,relative viability,[10]; 0.01 µM,1.05
same,relative viability,[10]; 0.03162 µM,0.906
same,relative viability,[10]; 0.1 µM,0.928
same,relative viability,[10]; 1 µM,0.713
